Paper PMC10176470, “Engaging a Non-catalytic Cysteine Residue Drives Potent and Selective Inhibition of Caspase-6” (Journal of the American Chemical Society, 2023)

Biological target: T1, caspase-3 (C3) (Homo sapiens, UniProt P42574)
T1 sequence (P42574 29-175 limits assumed): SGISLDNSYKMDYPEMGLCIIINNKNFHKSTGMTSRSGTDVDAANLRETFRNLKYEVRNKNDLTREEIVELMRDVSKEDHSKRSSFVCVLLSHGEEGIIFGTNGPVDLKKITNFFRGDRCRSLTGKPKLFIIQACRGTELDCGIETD
Assay: Caspase-3 biochemical activity assay with fluorogenic substrate
Text: Error bars represent the standard deviation of thre replicate measurements. […] Activity measured by the cleavage of aminofluorocoumarin-labeled peptides (see the Supporting Information for sequences). C = caspase.

For `C=CS(=O)(=O)N1C[C@H](C(=O)Nc2ccc(OC(F)(F)F)cc2)C[C@@H](c2ccccc2)C1` [3a], the “activity against C3 (in words)” value was “lack of activity” and the IC50 (read-out: Casp-3 IC50) was > 500 µM.
